Results reported in patent US9944969B2, “Devices, systems and methods for detecting viable infectious agents in a fluid sample” (eSense, LLC, priority 2015, dated 2018).

Experiments:
[1] = tested on: Staphylococcus saprophyticus; experiment: pH change of sample effluent after exposure of Staphylococcus saprophyticus to anti-infective (ISFET sensor system, FIG. 10); type: cell-based; details: Staphylococcus saprophyticus from fluid sample; pH of sample effluent 60 minutes after exposure
Text: In these examples, Staphylococcus saprophyticus can be one of the infectious agents 102 present in the fluid sample 124 applied or introduced to the system 100.

[2] = tested on: E. coli; experiment: pH change of sample effluent after exposure of E. coli to anti-infective (ISFET sensor system, FIG. 9); type: cell-based; details: for concentration of anti-infective to which the E. coli is resistant (change in pH): E. coli from fluid sample, pH of sample effluent 60 minutes after exposure
Text: FIG. 9 illustrates experimental results of experiments conducted using the methods and system 100 described herein. The graphs in FIG. 9 show a change in the solution characteristic 136 of the measured liquid 402, such as the sample effluent 134, monitored by the system 100 at a specific point in time. In this case, the graphs in FIG. 9 show the change in the solution characteristic 136 of the measured liquid 402 sixty (60) minutes after an anti-infective 104 is introduced to the filter 110, the substrate wells 200, or a combination thereof comprising the infectious agent 102.
In this example, E. coli can be one of the infectious agents 102 present in the fluid sample 124 applied or introduced to the system 100. […] An insignificant change in the solution characteristic 136 can be a change below a statistically significant percentage or threshold value.

Compound	concentration of anti-infective to which the Staphylococcus saprophyticus is resistant (change in pH) [1]	concentration of anti-infective to which the E. coli is resistant (change in pH) [2]	MIC ([2]; Escherichia coli, 1 h, read-out: minimal inhibitory concentration (MIC))	concentration of anti-infective at which the Staphylococcus saprophyticus is susceptible [1]
CC1(C)S[C@@H]2[C@H](NC(=O)[C@H](N)c3ccccc3)C(=O)N2[C@H]1C(=O)O [ampicillin]	up to 50 μg/ml			
O=C(O)c1cn(C2CC2)c2cc(N3CCNCC3)c(F)cc2c1=O [ciprofloxacin]		approximately 0.1 μg/ml		
O=C1CN(/N=C/c2ccc([N+](=O)[O-])o2)C(=O)N1 [nitrofurantoin]	approximately 1 μg/ml	approximately 1 μg/ml	1 µg/mL	higher than 1 μg/ml
